Assay results reported in the NIST ThermoML archive (doi:10.1016/j.jct.2015.03.017).
Numbers after ± are expanded uncertainties.

Test: mn = molality of the nth substance listed, in mol/kg
Conditions: 74.66 kPa, Liquid; for speed of sound: Frequency=3 MHz, Sing-around technique in a fixed-path interferometer; for mass density: Vibrating tube method

CCCC[N+](CCCC)(CCCC)CCCC.[Br-] [tetrabutylammonium bromide] + O
Conditions	mass density, 278.15 K [kg/m3]	mass density, 283.15 K [kg/m3]	mass density, 288.15 K [kg/m3]	mass density, 293.15 K [kg/m3]	speed of sound, 278.15 K [m/s]	speed of sound, 283.15 K [m/s]	speed of sound, 288.15 K [m/s]	speed of sound, 293.15 K [m/s]	speed of sound, 298.15 K [m/s]
m1 = 0.01142	1000.27 ± 0.11	999.991 ± 0.11	999.38 ± 0.11	998.474 ± 0.11	1432 ± 1.2	1452.5 ± 1.2	1470.9 ± 1.2	1487.1 ± 1.2	1501.3 ± 1.2
m1 = 0.02179	1000.55 ± 0.11	1000.26 ± 0.11	999.637 ± 0.11	998.721 ± 0.11	–	–	–	–	–
m1 = 0.02564	1000.66 ± 0.11	1000.36 ± 0.11	999.733 ± 0.11	998.812 ± 0.11	1436.7 ± 1.2	1457.5 ± 1.2	1475.5 ± 1.2	1491.3 ± 1.2	1504.8 ± 1.2
m1 = 0.03767	1000.97 ± 0.11	1000.66 ± 0.11	1000.02 ± 0.11	999.087 ± 0.11	1439.6 ± 1.2	1459.7 ± 1.2	1477.4 ± 1.2	1492.9 ± 1.2	1506.4 ± 1.2
m1 = 0.0459	1001.19 ± 0.11	1000.87 ± 0.11	1000.23 ± 0.11	999.287 ± 0.11	1442.7 ± 1.2	1462.5 ± 1.2	1480.1 ± 1.2	1495.5 ± 1.2	1508.9 ± 1.2
m1 = 0.05856	1001.55 ± 0.11	1001.21 ± 0.11	1000.54 ± 0.11	999.585 ± 0.11	1446.1 ± 1.2	1465.7 ± 1.2	1482.9 ± 1.2	1498.1 ± 1.2	1511.7 ± 1.2
m1 = 0.0711	1001.86 ± 0.11	1001.51 ± 0.11	1000.83 ± 0.11	999.857 ± 0.11	1450 ± 1.2	1469.4 ± 1.2	1486.4 ± 1.2	1501.3 ± 1.2	1514.3 ± 1.2
m1 = 0.07968	1002.09 ± 0.11	1001.73 ± 0.11	1001.04 ± 0.11	1000.05 ± 0.11	1453 ± 1.2	1472.2 ± 1.2	1489.1 ± 1.2	1504 ± 1.2	1516.9 ± 1.2
m1 = 0.09066	1002.42 ± 0.11	1002.04 ± 0.11	1001.33 ± 0.11	1000.34 ± 0.11	1455.7 ± 1.2	1474.4 ± 1.2	1491 ± 1.2	1505.4 ± 1.2	1517.9 ± 1.2
m1 = 0.1003	1002.67 ± 0.11	1002.28 ± 0.11	1001.54 ± 0.11	1000.54 ± 0.11	1458 ± 1.2	1476.6 ± 1.2	1493 ± 1.2	1507.3 ± 1.2	1519.7 ± 1.2
